This note sets out measurements from the Bradley open melting point set (2014).

“And” between values parts separate entries of the source, which are not always exact repeats. Equal entries are not always repeated.

`Cc1cc(O)ccc1O` [2-Methylbenzene-1,4-diol] had a melting point of 129 °C. On to `CC(=O)c1ccc(C)c([N+](=O)[O-])c1` [4'-methyl-3'-nitroacetophenone], for which the melting point turned out to be 60 °C. The same measure for `Clc1cc(Cl)c(Cl)c(Cl)c1` [1,2,3,5-Tetrachlorobenzene]: 51.5 °C; for `CC(=O)OC1CCC2(C)C(CCC3C2CCC2(C)C3CCC2(O)C#Cc2ccccc2)C1` (stereo unspecified) [17-hydroxy-21-phenylpregn-20-yn-3-yl acetate]: 166 °C. `CC12CCC3C(C(=O)CC4CC(=O)CCC43C)C1CCC2=O` (stereo unspecified) [androstane-3,7,17-trione]: the melting point worked out at 232 °C. The same measure for `CCc1c(C)cccc1C` [1,3-dimethyl-2-ethylbenzene]: -16 °C.

In turn, `N#Cc1ccc(Cc2ccccc2)cc1` [p-benzyl_benzonitrile] showed a melting point of 51 °C. `Cc1cccc(-c2nc(-c3ccccc3)cs2)c1` [4-phenyl-2-(m-tolyl)thiazole] came in with a melting point of 48 °C.

For `CN(C)c1ccc(C=O)cc1` [4-(Dimethylamino)benzaldehyd], the melting point came to 75 °C. Regarding `OB(O)c1c(F)c(F)cc(F)c1F` [2,3,5,6-tetrafluorobenzeneboronic acid], the melting point was 143 °C. `COC(=O)c1ccc(C=O)cc1` [Methyl 4-formylbenzoate] registered a melting point of 61 °C. The same measure for `CC(=O)C(=O)O` [pyruvic acid]: 11.5 °C (2×) and 12 °C (2×) and 13.8 °C. As for `OC1CCOc2ccccc21` (stereo unspecified) [4-chromanol], the melting point was determined as 40 °C.

Molecule `Cc1ccc(-c2ccc(/C=C/C(=O)c3ccco3)o2)cc1` displayed a melting point of 111 °C. The same measure for `CC(C)(C)OC(=O)N[C@@H](Cc1cccs1)C(=O)O` [N-boc-3-(2-thienyl)-L-alanine]: 74 °C. `CCN1CCCC1CNC(=O)c1cc(S(N)(=O)=O)ccc1OC` (stereo unspecified) [sulpiride] showed a melting point of 178 °C. Molecule `CCOC(=O)c1csnn1` [ethyl 1,2,3-thiadiazole-4-carboxylate] yielded a melting point of 84 °C. `CCC(c1ccccc1)c1ccccc1` [1,1-diphenylpropane] had a melting point of 14 °C. As for `CC(C)(C)OC(=O)NCC(=O)O` [N-boc-glycine], the melting point was 89 °C. For `OC[C@@H]1OC(O)[C@@H](O)[C@H]1O` (stereo partly drawn) [L-ribose], the melting point worked out at 87 °C. Molecule `CC1=C(/C=C/C(C)=C/C=C/C(C)=C/C=C/C=C(C)/C=C/C=C(C)/C=C/C2=C(C)CCCC2(C)C)C(C)(C)CCC1` [beta-carotene] displayed a melting point of 180 °C. Molecule `O=S1(=O)CCCO1` [1,3-propanesultone] yielded a melting point of 32 °C. On to `COC(=O)c1ccccc1O` [methyl salicylate], for which the melting point was -9 °C. `O=C(O)c1ccc(C(=O)O)c(Br)c1` [2-bromoterephthalic acid] displayed a melting point of 299 °C. The same measure for `Nc1ccc2ccc3cccc4ccc1c2c34` [aminopyrene]: 116 °C; for `C#CCCCCCC` [1-octyne]: -79 °C. Molecule `COc1ccc([N+](=O)[O-])cc1` [1-Methoxy-4-nitrobenzene] showed a melting point of 48 °C. The same measure for `C1CCSC1` [tetrahydrothiophene]: -96 °C; for `COc1ccc(C=O)cc1` [p-anisaldehyde]: 1 °C; for `COc1ccc(/C=C/[N+](=O)[O-])cc1OC` [3,4-dimethoxy-beta-nitrostyrene]: 140 °C. `O=CNc1ccccc1` [formanilide] yielded a melting point of 47 °C. To `CCCCCCCCCc1ccc(B(O)O)cc1` [4-n-nonylbenzeneboronic acid] belongs 84 °C. `CCC1(c2ccccc2)CCC(=O)NC1=O` (stereo unspecified) [glutethimide] showed a melting point of 87.5 °C. With `Ic1ccccc1` [iodobenzene], the melting point was -31 °C. `COc1cc2c(c(OC)c1OC)-c1ccc(OC)c(=O)cc1[C@@H](NC(C)=O)CC2` displayed a melting point of 142 °C. In turn, `CC1(C)C[C@@H](C(=O)O)[C@@H]1N` (relative stereo) [trans-2-Amino-3,3-dimethylcyclobutane-1-carboxylic acid] displayed a melting point of 155 °C.

In the case of `CCc1cccc(CC)c1NC(=O)CCl` [2-chloro-2',6'-diethylacetanilide], the melting point was found to be 130 °C. For the molecule `COc1ccc(B(O)O)cc1OC` [3,4-dimethoxybenzeneboronic acid], the melting point came to 240 °C.

On to `O=C(/N=N/C(=O)OCc1ccccc1)OCc1ccccc1` [dibenzyl azodicarboxylate], for which the melting point was found to be 45 °C. Molecule `Nc1cccc([N+](=O)[O-])c1` [m-nitroaniline] displayed a melting point of 114 °C. `Brc1cccc(Br)c1` [1,3-dibromobenzene]: the melting point was -7 °C. Molecule `CC(O)C(C)O` (stereo unspecified) [Butane-2,3-diol] came in with a melting point of 25 °C. In turn, `COC(=O)c1ccccc1OC(C)=O` [methyl_2-acetoxybenzoate] displayed a melting point of 52 °C. Consider `CC(=O)OC1CCC2C3CCC4CC=CCC4(C)C3CCC12C` (stereo unspecified) [androst-2-en-17-yl acetate], for which the melting point was 94 °C.

In turn, `CCOC(=O)c1ccccc1C(=O)OCC` [diethyl_phthalate] yielded a melting point of -3 °C.

As to `Nc1ccccc1[N+](=O)[O-]` [2-Nitroaniline], the melting point came to 72 °C.

In turn, `CCCC1=NNC(=O)C1` [3-n-propyl-2-pyrazolin-5-one] displayed a melting point of 208 °C. `O=Cc1ccc(Cl)c(Cl)c1` [3,4-dichlorobenzaldehyde] returned a melting point of 44 °C. To `CNC(=O)Oc1cccc2ccccc12` [carbaryl] belongs 142 °C; to `NCCc1ccc(O)cc1` [tyramine], 164 °C.

With `O=C(O)c1ccc(Br)cc1` [4-bromobenzoic acid], the melting point turned out to be 253 °C. `CCCCCCCCCCCCCCCCCCCC(=O)OC` [methyl eicosanoate] registered a melting point of 48 °C. In turn, `O=[N+]([O-])c1ccc(-c2nnc3sc(/C=C/c4ccccc4)nn23)cc1` yielded a melting point of 113 °C. Molecule `O=C(O)C1CC2=C3C=CCC=C3N=C2CN1` (stereo not drawn) [2,3,4,9-tetrahydro-1H-beta-carboline-3-carboxylic acid] returned a melting point of 296 °C. In turn, `CCC1C(=O)CCC1=O` [2-ethyl-1,3-cyclopentanedione] gave a melting point of 169 °C. Regarding `CC(=O)C=C(C)C` [mesityl oxide], the melting point is -59 °C. Molecule `OCC(O)C(O)C(O)C(O)CO` (stereo unspecified) [Mannitol] yielded a melting point of 168 °C. For the molecule `Cc1cc(C=O)c(C)n1-c1ccccn1` [OSM-S-44], the melting point came to 62.5 °C. The molecule `CCOC(=O)Cc1ccccc1` [ethyl phenylacetate] yielded a melting point of -29 °C. For the molecule `OB(O)c1ccc(Cl)s1` [5-chlorothiophene-2-boronic acid], the melting point amounted to 138 °C. In turn, `COC(=O)c1ccccc1[N+](=O)[O-]` [methyl 2-nitrobenzoate] came in with a melting point of -13 °C.

The molecule `COc1ccc(C(C)=CC(=O)O)c(OC)c1` [Hepadial] returned a melting point of 149 °C. To `O=S(=O)(Nc1ccccc1Cl)c1ccccc1` [2-chloro-1-phenylsulfonamidobenzene] belongs 125 °C.

With `CCOC(=O)c1ccc(O)cc1` [Ethyl 4-hydroxybenzoate], the melting point is 116 °C. The molecule `COc1ccccc1C=O` [o-anisaldehyde] displayed a melting point of 38 °C. For `C=C(C)CC` [2-methyl-1-butene], the melting point was -137 °C. To `NC(=O)c1ccccc1O` [salicylamide] belongs 142 °C; to `CCP(=O)(CC)CC` [triethylphosphine oxide], 49 °C. For the molecule `NC(CCC(=O)O)C(=O)O` (stereo in doubt) [D-Glutamic Acid], the melting point stood at 201 °C. Turning to `CC(C)(C)NCC(O)COc1cccc2c1C[C@H](O)[C@H](O)C2` (stereo partly specified) [Nadolol], the melting point amounted to 130 °C. The molecule `CCOC(O)C(Cl)(Cl)Cl` (stereo unspecified) [2,2,2-trichloro-1-ethoxyethanol] returned a melting point of 50 °C. On to `CCCCCCCCCCO` [1-decanol], for which the melting point turned out to be 7 °C. For the molecule `N#Cc1ccc(C#N)cc1` [Terephthalonitrile], the melting point was 226 °C.

The molecule `C/C=C/C(=O)O` [trans-crotonic acid] had a melting point of 72 °C. `CCCCCCCCCCCCCC` [N-tetradecane] displayed a melting point of 6 °C.

As to `CCCCCCCC#N` [octanenitrile], the melting point is -45 °C.

In the case of `COc1cc(C(=O)NN)cc(OC)c1O` [3,5-dimethoxy-4-hydroxybenzhydrazide], the melting point amounted to 156 °C. The molecule `COC(=O)c1cccc(B(O)O)c1` [3-(methoxycarbonyl)benzeneboronic acid] came in with a melting point of 136 °C. To `NC(=O)c1ccccc1N` [o-aminobenzamide] belongs 113 °C; to `CCC(Br)CBr` (stereo unspecified) [1,2-dibromobutane], -65 °C; to `COC(=O)/C=C/C(=O)OC` [dimethyl_fumarate], 104 °C. Molecule `O=S(=O)(c1ccc(Cl)cc1)c1ccc(Cl)cc1` [bis(4-chlorophenyl) sulfone] showed a melting point of 149 °C. As for `COC(=O)c1cc(OC)cc(OC)c1` [methyl_3,5-dimethoxybenzoate], the melting point worked out at 43 °C.

As for `Cc1cc(Br)cnc1N` [2-amino-5-bromo-3-methylpyridine], the melting point was determined as 92 °C. Take `CCNc1nc(NC(C)(C)C)nc(SC)n1`: the melting point is 104 °C.

With `CC(C)NCC(O)COc1cccc2[nH]ccc12` (stereo unspecified) [pindolol], the melting point came out at 170 °C. To `CC1CC1` [cyclopropylmethane] belongs -177 °C; to `O=C(O)/C=C/c1ccc(Cl)cc1Cl` [trans-2,4-dichlorocinnamic acid], 234 °C. The same measure for `CCCCCCCCCCCCC` [tridecane]: -5 °C.

For `[2H]C([2H])([2H])C([2H])([2H])C([2H])([2H])C([2H])([2H])C([2H])([2H])C([2H])([2H])C([2H])([2H])C([2H])([2H])C([2H])([2H])C([2H])([2H])[2H]` [(~2~H_22_)Decane], the melting point was -30 °C. In turn, `FC(F)(F)C(F)(F)C(F)(F)C(F)(F)C(F)(F)C(F)(F)F` [perfluorohexanes] came in with a melting point of -90 °C.

The term melting point denotes the temperature of the solid-liquid transition.
